In ChEMBL document CHEMBL5291721, “A preclinical secondary pharmacology resource illuminates target-adverse drug reaction associations of marketed drugs” (Nat Commun, 2023):

Experiments:
[1] = molecular target: T1, Endothelin receptor type B (Homo sapiens, UniProt P24530)
T1 sequence (P24530 whole entry): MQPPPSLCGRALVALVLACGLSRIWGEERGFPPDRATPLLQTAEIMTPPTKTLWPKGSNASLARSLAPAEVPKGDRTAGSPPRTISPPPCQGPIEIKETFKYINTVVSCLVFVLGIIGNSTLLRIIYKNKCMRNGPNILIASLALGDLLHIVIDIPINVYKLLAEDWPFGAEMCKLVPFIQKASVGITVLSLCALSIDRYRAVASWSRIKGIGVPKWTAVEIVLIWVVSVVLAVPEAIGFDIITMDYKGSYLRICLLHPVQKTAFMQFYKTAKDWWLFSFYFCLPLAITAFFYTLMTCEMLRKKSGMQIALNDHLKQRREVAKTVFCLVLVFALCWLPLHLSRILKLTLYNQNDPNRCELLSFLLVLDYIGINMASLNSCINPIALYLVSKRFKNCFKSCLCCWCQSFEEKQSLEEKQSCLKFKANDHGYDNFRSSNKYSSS

[2] = molecular target: 5-hydroxytryptamine receptor 7 (Homo sapiens, UniProt P34969)
[3] = molecular target: 5-hydroxytryptamine receptor 6 (Homo sapiens, UniProt P50406)
[4] = molecular target: T2, Muscarinic acetylcholine receptor M2 (Homo sapiens, UniProt P08172)
T2 sequence (P08172 whole entry): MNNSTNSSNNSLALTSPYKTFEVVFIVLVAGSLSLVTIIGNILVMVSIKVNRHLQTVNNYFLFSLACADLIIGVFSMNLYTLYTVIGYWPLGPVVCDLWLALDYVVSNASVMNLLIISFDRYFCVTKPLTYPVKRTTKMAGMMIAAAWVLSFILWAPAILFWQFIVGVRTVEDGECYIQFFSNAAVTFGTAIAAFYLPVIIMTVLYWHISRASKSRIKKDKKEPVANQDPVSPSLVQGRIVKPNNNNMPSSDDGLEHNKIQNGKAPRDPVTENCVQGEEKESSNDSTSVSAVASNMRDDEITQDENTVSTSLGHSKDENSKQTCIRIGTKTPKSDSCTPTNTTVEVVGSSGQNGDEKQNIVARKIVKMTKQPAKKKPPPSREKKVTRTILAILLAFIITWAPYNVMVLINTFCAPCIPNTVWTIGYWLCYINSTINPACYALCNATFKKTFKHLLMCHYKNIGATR

Substance-P receptor = Substance-P receptor (Homo sapiens, UniProt P25103)
Cannabinoid receptor 1 = Cannabinoid receptor 1 (Homo sapiens, UniProt P21554); type: functional
[5] = molecular target: Sodium channel protein type 5 subunit alpha (Homo sapiens, UniProt Q14524); type: functional, cell-based
[6] = molecular target: Gamma-aminobutyric acid receptor subunit alpha-1/alpha-2/beta-2/gamma-2 (Homo sapiens, UniProt P14867+P18507+P47869+P47870); type: functional, cell-based
Androgen receptor = molecular target: T3, Androgen receptor (Rattus norvegicus, UniProt P15207)
T3 sequence (P15207 whole entry): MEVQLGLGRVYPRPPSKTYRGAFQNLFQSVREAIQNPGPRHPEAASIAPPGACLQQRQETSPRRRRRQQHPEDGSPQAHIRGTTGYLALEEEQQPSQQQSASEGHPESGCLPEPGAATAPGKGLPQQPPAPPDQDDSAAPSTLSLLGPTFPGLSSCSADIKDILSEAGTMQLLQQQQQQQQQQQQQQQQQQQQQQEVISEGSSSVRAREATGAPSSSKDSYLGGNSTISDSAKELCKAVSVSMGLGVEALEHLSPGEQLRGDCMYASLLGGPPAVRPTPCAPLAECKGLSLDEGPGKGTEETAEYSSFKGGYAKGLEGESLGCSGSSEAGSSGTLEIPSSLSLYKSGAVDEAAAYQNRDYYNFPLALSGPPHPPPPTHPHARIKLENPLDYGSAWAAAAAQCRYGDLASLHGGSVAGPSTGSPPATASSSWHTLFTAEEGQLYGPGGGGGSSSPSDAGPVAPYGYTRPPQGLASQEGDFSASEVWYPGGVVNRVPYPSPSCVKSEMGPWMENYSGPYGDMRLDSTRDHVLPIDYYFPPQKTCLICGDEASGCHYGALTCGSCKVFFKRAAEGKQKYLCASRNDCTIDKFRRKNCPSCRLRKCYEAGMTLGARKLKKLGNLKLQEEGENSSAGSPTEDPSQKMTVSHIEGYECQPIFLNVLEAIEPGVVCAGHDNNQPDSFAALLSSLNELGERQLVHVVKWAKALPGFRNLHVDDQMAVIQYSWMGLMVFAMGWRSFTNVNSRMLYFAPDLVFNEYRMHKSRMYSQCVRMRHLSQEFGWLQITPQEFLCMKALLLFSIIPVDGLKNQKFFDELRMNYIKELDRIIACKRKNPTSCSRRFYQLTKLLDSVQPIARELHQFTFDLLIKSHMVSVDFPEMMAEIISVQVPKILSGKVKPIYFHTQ

[7] = molecular target: T4, Gastric inhibitory polypeptide receptor (Homo sapiens, UniProt P48546)
T4 sequence (P48546 whole entry): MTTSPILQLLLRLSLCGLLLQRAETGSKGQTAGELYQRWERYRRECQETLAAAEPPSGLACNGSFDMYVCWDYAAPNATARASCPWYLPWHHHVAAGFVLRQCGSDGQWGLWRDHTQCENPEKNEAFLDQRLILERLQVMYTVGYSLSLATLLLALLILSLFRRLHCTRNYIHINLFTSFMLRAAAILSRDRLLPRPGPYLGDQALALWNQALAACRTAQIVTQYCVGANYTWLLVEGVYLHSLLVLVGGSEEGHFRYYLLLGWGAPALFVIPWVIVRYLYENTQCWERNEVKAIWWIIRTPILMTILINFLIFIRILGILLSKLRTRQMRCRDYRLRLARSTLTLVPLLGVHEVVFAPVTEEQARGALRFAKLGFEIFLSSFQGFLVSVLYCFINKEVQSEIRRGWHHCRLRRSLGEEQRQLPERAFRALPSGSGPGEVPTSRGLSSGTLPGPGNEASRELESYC
Further: assay procedure not described here.

Gamma-aminobutyric acid receptor subunit alpha-1/alpha-2/beta-2/gamma-2, sequence (P14867 whole entry): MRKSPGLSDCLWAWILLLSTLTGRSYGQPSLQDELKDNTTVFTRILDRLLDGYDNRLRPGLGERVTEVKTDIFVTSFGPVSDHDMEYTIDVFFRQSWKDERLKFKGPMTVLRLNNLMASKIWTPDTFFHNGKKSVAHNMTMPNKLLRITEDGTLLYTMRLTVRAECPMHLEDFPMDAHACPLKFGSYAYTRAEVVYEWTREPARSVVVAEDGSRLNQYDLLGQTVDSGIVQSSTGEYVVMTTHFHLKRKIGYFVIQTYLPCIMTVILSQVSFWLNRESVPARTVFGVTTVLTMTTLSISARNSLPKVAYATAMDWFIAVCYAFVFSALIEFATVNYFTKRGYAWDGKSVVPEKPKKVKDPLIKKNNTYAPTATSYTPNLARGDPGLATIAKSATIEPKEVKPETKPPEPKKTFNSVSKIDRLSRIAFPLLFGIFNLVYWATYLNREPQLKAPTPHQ
Gamma-aminobutyric acid receptor subunit alpha-1/alpha-2/beta-2/gamma-2, sequence (P47870 whole entry): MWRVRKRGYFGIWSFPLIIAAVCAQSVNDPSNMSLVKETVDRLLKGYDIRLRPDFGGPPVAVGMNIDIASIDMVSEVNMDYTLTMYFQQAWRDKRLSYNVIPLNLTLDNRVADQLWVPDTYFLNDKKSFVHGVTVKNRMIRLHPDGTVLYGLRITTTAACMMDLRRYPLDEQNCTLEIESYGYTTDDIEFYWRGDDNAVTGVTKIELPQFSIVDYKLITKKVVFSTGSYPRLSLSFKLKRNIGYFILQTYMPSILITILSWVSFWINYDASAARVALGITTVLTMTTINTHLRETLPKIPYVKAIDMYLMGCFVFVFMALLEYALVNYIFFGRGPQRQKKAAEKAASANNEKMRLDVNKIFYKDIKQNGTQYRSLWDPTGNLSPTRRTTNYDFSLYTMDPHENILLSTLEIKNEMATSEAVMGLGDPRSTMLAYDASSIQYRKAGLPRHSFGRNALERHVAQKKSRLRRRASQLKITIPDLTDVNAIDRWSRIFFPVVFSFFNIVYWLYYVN
Gamma-aminobutyric acid receptor subunit alpha-1/alpha-2/beta-2/gamma-2, sequence (P18507 whole entry): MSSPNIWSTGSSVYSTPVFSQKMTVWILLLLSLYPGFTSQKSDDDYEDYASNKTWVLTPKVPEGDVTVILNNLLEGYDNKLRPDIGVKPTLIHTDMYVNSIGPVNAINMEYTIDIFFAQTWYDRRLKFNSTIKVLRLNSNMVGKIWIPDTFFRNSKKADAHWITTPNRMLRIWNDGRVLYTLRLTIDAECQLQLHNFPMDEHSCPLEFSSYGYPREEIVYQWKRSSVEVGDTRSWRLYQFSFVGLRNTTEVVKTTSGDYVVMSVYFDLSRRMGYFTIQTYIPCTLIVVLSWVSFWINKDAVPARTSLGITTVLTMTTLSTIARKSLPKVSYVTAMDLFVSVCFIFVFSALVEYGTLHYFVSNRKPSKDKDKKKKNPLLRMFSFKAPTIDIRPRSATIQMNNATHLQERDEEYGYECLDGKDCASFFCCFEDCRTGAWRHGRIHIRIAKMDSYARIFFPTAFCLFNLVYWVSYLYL
Gamma-aminobutyric acid receptor subunit alpha-1/alpha-2/beta-2/gamma-2, sequence (P47869 whole entry): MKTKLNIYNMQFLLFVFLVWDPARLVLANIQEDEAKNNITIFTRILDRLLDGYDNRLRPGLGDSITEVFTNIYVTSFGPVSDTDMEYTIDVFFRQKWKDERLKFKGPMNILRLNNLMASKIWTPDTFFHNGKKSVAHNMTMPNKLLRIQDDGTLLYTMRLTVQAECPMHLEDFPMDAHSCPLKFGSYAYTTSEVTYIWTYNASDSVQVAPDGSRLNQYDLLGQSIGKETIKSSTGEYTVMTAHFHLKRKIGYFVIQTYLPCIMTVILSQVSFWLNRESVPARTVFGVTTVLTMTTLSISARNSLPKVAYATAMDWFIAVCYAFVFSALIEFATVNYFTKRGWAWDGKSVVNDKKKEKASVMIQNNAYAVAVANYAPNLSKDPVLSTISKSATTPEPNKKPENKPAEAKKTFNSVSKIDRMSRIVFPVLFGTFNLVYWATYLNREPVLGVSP
Sodium channel protein type 5 subunit alpha, sequence (Q14524 whole entry): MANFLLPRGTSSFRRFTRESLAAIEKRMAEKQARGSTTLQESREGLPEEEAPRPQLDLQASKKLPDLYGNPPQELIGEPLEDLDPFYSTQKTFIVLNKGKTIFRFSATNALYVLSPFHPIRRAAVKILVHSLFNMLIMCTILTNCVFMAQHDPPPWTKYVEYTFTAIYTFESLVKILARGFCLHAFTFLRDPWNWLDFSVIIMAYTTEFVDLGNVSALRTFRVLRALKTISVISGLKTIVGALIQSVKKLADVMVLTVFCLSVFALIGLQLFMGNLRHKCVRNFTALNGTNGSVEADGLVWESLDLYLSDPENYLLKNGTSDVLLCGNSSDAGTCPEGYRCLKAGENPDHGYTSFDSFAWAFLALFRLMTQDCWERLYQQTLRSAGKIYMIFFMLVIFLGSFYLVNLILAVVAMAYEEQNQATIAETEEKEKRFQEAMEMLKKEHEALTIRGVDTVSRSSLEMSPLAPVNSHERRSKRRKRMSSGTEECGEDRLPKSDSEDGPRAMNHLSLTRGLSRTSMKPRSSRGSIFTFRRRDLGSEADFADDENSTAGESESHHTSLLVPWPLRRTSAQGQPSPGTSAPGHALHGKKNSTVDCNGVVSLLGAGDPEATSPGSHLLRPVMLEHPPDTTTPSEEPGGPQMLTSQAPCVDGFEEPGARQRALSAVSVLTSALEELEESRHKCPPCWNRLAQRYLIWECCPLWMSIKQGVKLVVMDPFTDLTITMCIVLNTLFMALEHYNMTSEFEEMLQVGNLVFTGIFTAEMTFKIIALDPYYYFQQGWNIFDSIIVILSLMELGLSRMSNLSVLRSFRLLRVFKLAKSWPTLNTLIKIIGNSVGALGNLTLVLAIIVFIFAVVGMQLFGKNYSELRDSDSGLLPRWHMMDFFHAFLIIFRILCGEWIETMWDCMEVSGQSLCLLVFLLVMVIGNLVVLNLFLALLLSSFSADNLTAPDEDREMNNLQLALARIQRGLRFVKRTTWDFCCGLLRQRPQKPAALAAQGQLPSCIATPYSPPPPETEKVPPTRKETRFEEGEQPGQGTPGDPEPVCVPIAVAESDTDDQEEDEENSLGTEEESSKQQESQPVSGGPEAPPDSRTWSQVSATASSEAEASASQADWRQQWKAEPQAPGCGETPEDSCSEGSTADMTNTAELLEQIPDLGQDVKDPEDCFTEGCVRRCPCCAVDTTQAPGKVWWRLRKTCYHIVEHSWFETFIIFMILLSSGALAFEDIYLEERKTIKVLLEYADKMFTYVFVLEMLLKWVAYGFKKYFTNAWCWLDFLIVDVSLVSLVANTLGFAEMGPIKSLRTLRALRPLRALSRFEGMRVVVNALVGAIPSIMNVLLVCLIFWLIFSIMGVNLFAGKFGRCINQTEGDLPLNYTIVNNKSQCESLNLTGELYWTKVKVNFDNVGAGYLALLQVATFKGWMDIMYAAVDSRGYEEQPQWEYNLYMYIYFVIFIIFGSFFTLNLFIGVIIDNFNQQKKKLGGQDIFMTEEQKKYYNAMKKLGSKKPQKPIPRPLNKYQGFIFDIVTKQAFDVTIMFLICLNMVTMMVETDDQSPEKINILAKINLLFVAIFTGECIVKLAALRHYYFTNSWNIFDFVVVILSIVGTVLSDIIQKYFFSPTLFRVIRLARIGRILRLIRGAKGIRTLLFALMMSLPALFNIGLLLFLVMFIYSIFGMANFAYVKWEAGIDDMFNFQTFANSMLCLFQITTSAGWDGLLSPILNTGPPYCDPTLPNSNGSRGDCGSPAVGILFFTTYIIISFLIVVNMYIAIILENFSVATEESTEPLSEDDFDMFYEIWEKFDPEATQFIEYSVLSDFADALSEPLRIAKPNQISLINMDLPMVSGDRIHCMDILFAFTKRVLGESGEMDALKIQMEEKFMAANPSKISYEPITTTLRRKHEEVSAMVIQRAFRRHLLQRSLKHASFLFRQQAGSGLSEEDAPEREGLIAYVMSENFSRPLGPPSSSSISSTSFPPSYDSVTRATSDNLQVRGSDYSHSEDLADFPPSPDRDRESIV
Cannabinoid receptor 1, sequence (P21554 whole entry): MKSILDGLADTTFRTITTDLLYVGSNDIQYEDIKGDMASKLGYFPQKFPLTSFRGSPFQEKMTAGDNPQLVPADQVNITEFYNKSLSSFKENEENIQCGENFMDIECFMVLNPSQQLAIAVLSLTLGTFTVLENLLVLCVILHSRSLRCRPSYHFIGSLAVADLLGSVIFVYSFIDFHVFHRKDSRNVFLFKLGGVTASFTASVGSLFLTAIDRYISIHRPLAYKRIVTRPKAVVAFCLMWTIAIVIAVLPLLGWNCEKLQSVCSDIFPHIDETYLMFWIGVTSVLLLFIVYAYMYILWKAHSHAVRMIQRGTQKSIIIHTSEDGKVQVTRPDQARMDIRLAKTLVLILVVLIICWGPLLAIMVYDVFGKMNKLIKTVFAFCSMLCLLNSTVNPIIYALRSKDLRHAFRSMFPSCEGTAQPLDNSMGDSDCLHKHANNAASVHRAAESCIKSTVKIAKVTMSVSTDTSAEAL
Substance-P receptor, sequence (P25103 whole entry): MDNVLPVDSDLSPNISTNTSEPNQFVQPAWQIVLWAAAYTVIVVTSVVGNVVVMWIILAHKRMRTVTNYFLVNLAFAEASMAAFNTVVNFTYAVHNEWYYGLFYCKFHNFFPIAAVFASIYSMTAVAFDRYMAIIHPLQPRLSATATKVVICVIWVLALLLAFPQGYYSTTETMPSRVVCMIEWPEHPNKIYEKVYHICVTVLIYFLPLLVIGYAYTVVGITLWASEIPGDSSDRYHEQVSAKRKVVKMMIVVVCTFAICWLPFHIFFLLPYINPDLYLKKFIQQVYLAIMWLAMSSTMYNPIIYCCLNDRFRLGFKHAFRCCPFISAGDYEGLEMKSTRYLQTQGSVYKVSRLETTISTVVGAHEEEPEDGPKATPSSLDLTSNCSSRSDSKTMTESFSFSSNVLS

N#Cc1ccc([C@H]2CCc3cncn32)c(F)c1 [OSILODROSTAT]
AC50 [1]: > 10 µM
AC50 [2]: > 10 µM
AC50 [3]: > 10 µM
AC50 [4]: > 10 µM
AC50 (Substance-P receptor): > 10 µM
AC50 (Cannabinoid receptor 1): > 10 µM

Clc1ccc(CCCOCCCN2CCCCC2)cc1 [PITOLISANT]
AC50 [5]: 32 µM

CC(=O)O[C@H]1CC[C@@]2(C)C(=CC[C@@H]3[C@@H]2CC[C@]2(C)C(c4cccnc4)=CC[C@@H]32)C1 [ABIRATERONE ACETATE]
AC50 [5]: > 30 µM

C/C(O)=C(\C#N)C(=O)Nc1ccc(C(F)(F)F)cc1 [TERIFLUNOMIDE]
AC50 [5]: > 50 µM
AC50 [6]: > 30 µM

CC(CC(c1ccccc1)c1ccccc1)NC(C)(C)C (stereo not given) [TERODILINE]
AC50 [5]: 8.65 µM

O=C(O)C1=C(CSc2nnnn2CS(=O)(=O)O)CS[C@@H]2[C@H](NC(=O)[C@H](O)c3ccccc3)C(=O)N12 [CEFONICID]
AC50 (Androgen receptor): > 30 µM

O=C(O)C[C@H](O)C[C@H](O)/C=C/c1c(C2CC2)nc2ccccc2c1-c1ccc(F)cc1 [PITAVASTATIN]
AC50 (Androgen receptor): > 10 µM

CCN1CCN(C(=O)N[C@@H](C(=O)N[C@@H]2C(=O)N3C(C(=O)O)=C(CSc4nnnn4C)CS[C@H]23)c2ccc(O)cc2)C(=O)C1=O [CEFOPERAZONE]
AC50 [6]: > 30 µM

CN1C(=O)C(O)N=C(c2ccccc2)c2cc(Cl)ccc21 (stereo not given) [TEMAZEPAM]
AC50 [1]: > 30 µM
AC50 [7]: > 30 µM
AC50 [4]: > 10 µM
AC50 (Substance-P receptor): > 10 µM

NCC[C@H](O)C(=O)N[C@@H]1C[C@H](N)[C@@H](O[C@H]2O[C@H](CN)[C@@H](O)[C@H](O)[C@H]2O)[C@H](O)[C@H]1O[C@H]1O[C@H](CO)[C@@H](O)[C@H](N)[C@H]1O [AMIKACIN]
AC50 (Androgen receptor): > 10 µM

COC(=O)C1=C(C)NC(C)=C(C(=O)OC2CCCN(Cc3ccccc3)C2)C1c1cccc([N+](=O)[O-])c1 (stereo not given) [BENIDIPINE]
AC50 [5]: > 50 µM

COC(=O)[C@H]1[C@H]2C[C@@H]3c4[nH]c5cc(OC)ccc5c4CCN3C[C@H]2C[C@@H](OC(=O)/C=C/c2cc(OC)c(OC)c(OC)c2)[C@@H]1OC [RESCINNAMINE]
AC50 (Androgen receptor): > 10 µM

CCc1c(Cl)c(O)c(Cl)c(O)c1C(=O)O[C@H]1[C@H](O)[C@H](OC)[C@H](OC/C2=C\C=C\C[C@H](O)/C(C)=C/[C@H](CC)[C@@H](O[C@@H]3OC(C)(C)[C@@H](OC(=O)C(C)C)[C@H](O)[C@@H]3O)/C(C)=C/C(C)=C/C[C@@H]([C@@H](C)O)OC2=O)O[C@@H]1C [FIDAXOMICIN]
AC50 [1]: > 30 µM
AC50 [7]: > 30 µM
AC50 (Androgen receptor): 25 µM
AC50 [4]: > 10 µM
AC50 (Substance-P receptor): 5.92 µM

CC(C)(C)c1cc(C(C)(C)C)c(NC(=O)c2c[nH]c3ccccc3c2=O)cc1O [IVACAFTOR]
AC50 (Androgen receptor): > 30 µM
AC50 [4]: > 10 µM

COC(=O)C1=C(C)NC(C)=C(C(=O)OC(C)(C)CN(C)CCC(c2ccccc2)c2ccccc2)C1c1cccc([N+](=O)[O-])c1 (stereo not given) [LERCANIDIPINE]
AC50 (Androgen receptor): > 30 µM
AC50 [5]: > 50 µM

CNS(=O)(=O)Cc1ccc2[nH]cc(CCN(C)C)c2c1
AC50 [1]: > 30 µM
AC50 [2]: 4.67 µM
AC50 [7]: > 30 µM
AC50 [3]: > 10 µM
AC50 (Cannabinoid receptor 1): > 10 µM
AC50 [6]: > 30 µM

C=CCC1(CC(C)C)C(=O)NC(=O)NC1=O [BUTALBITAL]
AC50 (Androgen receptor): > 10 µM

CCCc1nc(C(C)(C)O)c(C(=O)OCc2oc(=O)oc2C)n1Cc1ccc(-c2ccccc2-c2nnn[nH]2)cc1 [OLMESARTAN MEDOXOMIL]
AC50 [1]: > 50 µM
AC50 [2]: > 10 µM
AC50 [7]: > 30 µM
AC50 [3]: > 10 µM
AC50 (Substance-P receptor): > 10 µM
AC50 (Cannabinoid receptor 1): > 10 µM

CN1CCN(CC/C=C2/c3ccccc3Sc3ccc(S(=O)(=O)N(C)C)cc32)CC1 [THIOTHIXENE]
AC50 [1]: > 30 µM
AC50 [2]: 0.254 µM
AC50 [7]: > 30 µM
AC50 [3]: 0.455 µM
AC50 (Androgen receptor): > 30 µM
AC50 (Substance-P receptor): 3.84 µM
AC50 (Cannabinoid receptor 1): > 10 µM

CC(C)Cn1cnc2c(N)nc3ccccc3c21 [IMIQUIMOD]
AC50 (Androgen receptor): > 10 µM

CCCN(CCC)C(=O)C(CCC(=O)O)NC(=O)c1ccccc1 (stereo not given) [PROGLUMIDE]
AC50 [1]: > 30 µM
AC50 [7]: > 30 µM
AC50 [4]: > 10 µM
AC50 (Substance-P receptor): > 10 µM
